Values joined by “and” are separate entries in the source; they are usually repeats but may differ in a detail not shown here. Equal values may be shown once. Where a name gives a salt, the structure may show the parent alone. Read-outs that look alike come from different tables or passages of the source. *1 amine or outer side, *2 acyl side, *3 side chain or, on linkers, in order; H or OH if unused. Where a SMILES comes first, the peptide text is derived from it. Bridges are numbered along the chain shown (N, C = ends). [ ]: non-standard residue; d: D form. The star is where a group is joined. hTyr(3S-OH,4S-OH,3'-OSO3H) = N[C@H](C(=O)O)[C@H](O)[C@@H](O)c1ccc(O)c(OS(=O)(=O)O)c1; Orn(4R-OH,5R-OH) = O=C([C@H](C[C@@H](O)[C@@H](O)N[*:3])N[*:1])[*:2]; Pro(3S-OH,4S-Me) = C[C@H]1CN[C@H](C(=O)O)[C@H]1O; X1 = CCCCCOc1ccc(-c2cc(-c3ccc(C(=O)*)cc3)no2)cc1; Gln(3R-OH) = NC(=O)C[C@@H](O)[C@H](N)C(=O)O; Hyp = O=C(O)[C@@H]1C[C@@H](O)CN1
Molecular target: interaction between cTnC and switch peptide of cTnI (cTnISP) (Homo sapiens, UniProt P63316)
Test: Fluorescence polarization HTS and dose-response, cTnC/FAM-cTnISP
Format: binding
[1] = cTnISP primary screen, LOPAC 1280 library, single concentration 50 μmol/L
[2] = cTnISP primary screen, TOCRIScreen library, single concentration 50 μmol/L
[3] = cTnISP primary screen, ENZO Screenwell library, single concentration 50 μmol/L

Row | Compound | FP (mP) [1] | FP (mP) [2] | also measured
1 | Cc1nc(Nc2cnn(C3CCNCC3)c2)nc2c1N(C)C(=O)c1cc3ccccc3cc1N2C [HTH 01-015] | 87 mP | 87.1 mP | 
2 | COc1cc2nc(N3CCC(N4CCCCC4)CC3)nc(NC3CCCCCC3)c2cc1OC.Cl.Cl [C 021 dihydrochloride] |  | 87.1 mP | 
3 | [H]/N=C(/NCCCCC)N/N=C/c1c[nH]c2ccc(OC)cc12 [Tegaserod maleate] | 78.4 mP |  | 
4 | Cc1c(NC(=O)OC[C@@H]2COCCN2)cn2ncnc(Nc3ccc4c(cnn4Cc4cccc(F)c4)c3)c12.Cl.Cl [BMS 599626 dihydrochloride] |  | 88.2 mP | 
5 | CC(C)c1cnn2c(NCc3ccccc3)cc(NCCCCCCN)nc12.Cl.Cl [BS 181 dihydrochloride] |  | 73.2 mP | 
6 | c1ccc2cc(-c3ncc[nH]3)ccc2c1 [Benazoline oxalate] | 83.7 mP |  | 
7 | O[C@@H](CN1CCNCC1)Cn1c2ccc(Br)cc2c2cc(Br)ccc21 [Bax channel blocker] |  | 77.1 mP | 
8 | Br.Cc1cc2nc(NCCCO)n(CC(=O)c3cc(C(C)(C)C)c(O)c(C(C)(C)C)c3)c2cc1C [CID2858522] | 89.6 mP |  | 
9 | OCCN1CCN(CCCN2c3ccccc3Sc3ccc(Cl)cc32)CC1 [Perphenazine] |  |  | FP (mP) [3]: 73.2 mP
10 | Cn1cc(-c2[nH]c3cc(NC(=O)[C@H](N)C4CCCCC4)cc4c3c2C=NNC4=O)cn1 [PF 477736] |  | 64 mP | 
11 | COc1cc(N2CCN(C)CC2)ccc1Nc1ncc2c(n1)N(C)c1ccccc1C(=O)N2 [XMD 8-87] |  | 81.2 mP | 
12 | Cc1c2ccncc2c(C)c2c1[nH]c1ccccc12 [Ellipticine] | 86.1 mP |  | 
13 | CN(C)CCOc1ccc(/C(=C(/CCCl)c2ccccc2)c2ccccc2)cc1 [Toremifene Base] |  |  | FP (mP) [3]: 60.7 mP
14 | CC(C)(Cc1ccc2ccccc2c1)NC[C@@H](O)COc1cccc(Cl)c1C#N.Cl [NPS 2143 hydrochloride] |  | 87.5 mP | 
15 | CSc1ccc2c(c1)C(N1CCN(C)CC1)Cc1ccccc1S2 (stereo not drawn) [Methiothepin mesylate] | 86.5 mP |  | 
16 | CCOc1cc(C(=O)N2CCC(N3CCN(C)CC3)CC2)ccc1Nc1ncc2c(n1)N(C1CCCC1)c1ccccc1C(=O)N2C [ERK5-IN-1] |  | 64.9 mP | 
17 | O=C(O)C(O)C(O)C(=O)O.Oc1ccc2c(c1)CC[C@H](c1ccccc1)[C@@H]2c1ccc(OCCN2CCCC2)cc1 [Lasofoxifene tartrate] | 86.8 mP |  | 
18 | Nc1ncnc2c1c(-c1cccc(OCc3ccccc3)c1)cn2C1CC(CN2CCCC2)C1 (stereo not drawn) [NVP ADW 742] |  | 68.4 mP | 
19 | CN1CCN(CCCN2c3ccccc3Sc3ccc(Cl)cc32)CC1 [Prochlorperazine dimaleate] | 86.2 mP | 78.2 mP | 
20 | CN(C(=O)CN1C(=O)COc2cc(Cl)c(Cl)cc21)[C@@H](CN1CCCC1)c1ccc(-c2cccc(C(N)=O)c2)cc1.Cl [GSK 1562590 hydrochloride] |  | 89.9 mP | 

Row | Compound | FP (mP) [1] | FP (mP) [2] | also measured
21 | O=C(c1ccc(OCCN2CCCCC2)cc1)c1c(-c2ccc(O)cc2)sc2cc(O)ccc12 [Raloxifene.HCl] | 85.5 mP |  | FP (mP) [3]: 76.9 mP; FP (mP) (cTnISP primary screen, TOCRIScreen library, single concentration 50 μmol/L, listed as Raloxifene hydrochloride): 87.9 mP and 82.1 mP
22 | C[C@@H](NCCCc1cccc(C(F)(F)F)c1)c1cccc2ccccc12 [Cinacalcet.HCl] |  |  | FP (mP) [3]: 82.4 mP
23 | O=C(Nc1cc(C(F)(F)F)cc(C(F)(F)F)c1)c1cnc(Cl)nc1C(F)(F)F [SP 100030] |  | 70.3 mP | 
24 | CCCCCCCCNC(=O)/C(C#N)=C/c1cn(CCCN(C)C)c2ccccc12 [Dynole 34-2] |  | 64.1 mP | 
25 | CCN1CCN(Cc2ccc(-c3cc4c(N[C@H](C)c5ccccc5)ncnc4[nH]3)cc2)CC1 [AEE 788] |  | 77.8 mP | 
26 | Cc1cc(CN2CCN(c3c(Br)cnc4nc(-c5ccc(N6CCN(C)CC6)cc5)[nH]c34)CC2)no1 [CCT 137690] | 87 mP | 83.6 mP | 
27 | CS(=O)(=O)O.Cn1cc(C2=C(c3cn(CCCSC(=N)N)c4ccccc34)C(=O)NC2=O)c2ccccc21 [Ro 31-8220 mesylate] |  | 57.9 mP | 
28 | Cc1c(-c2ccc(O)cc2)n(Cc2ccc(OCCN3CCCCCC3)cc2)c2ccc(O)cc12 [Bazedoxifene acetate] |  | 74.5 mP | 
29 | O=C1CCc2ccc(OCCCCN3CCN(c4cccc(Cl)c4Cl)CC3)cc2N1 [Aripiprazole] |  | 86 mP | 
30 | CS(=O)(=O)O.c1cc2c(cc1C1CCCCC1)c1c3n2CCNC3CCC1 (stereo not drawn) [Tetrindole mesylate] |  | 65 mP | 
31 | CCN(CC)CCOc1ccc(C(=C(Cl)c2ccccc2)c2ccccc2)cc1 [Clomiphene Citrate] |  |  | FP (mP) [3]: 63.2 mP
32 | CCN(CC)CCOc1ccc(Nc2ncc3cc(-c4c(Cl)cccc4Cl)c(=O)n(C)c3n2)cc1.Cl.Cl [PD 166285 dihydrochloride] |  | 78.7 mP | 
33 | O=[N+]([O-])c1ccc(CNc2nc(NCc3cccc(C(F)(F)F)c3)nc3nc[nH]c23)cc1 [TNP] |  |  | FP (mP): 90.9 mP
34 | Cc1cc(N2C[C@@H](C)N[C@@H](C)C2)ncc1-c1ccc(-c2nc3c(ccn3C)c(=O)[nH]2)cc1 [AZ 6102] |  | 83.4 mP | 
35 | O=C1NCN(c2ccccc2)C12CCN(CCCC(c1ccc(F)cc1)c1ccc(F)cc1)CC2 [Fluspirilene] | 88.6 mP |  | 
36 | CCN(CC)CCOc1ccc(/C(=C(/Cl)c2ccccc2)c2ccccc2)cc1.Cl [Enclomiphene hydrochloride] | 78.4 mP |  | 
37 | CCN(CC)CCCCN1c2ccccc2Oc2ccc(Cl)cc21.Cl [10-DEBC hydrochloride] |  | 82.8 mP | 
38 | CCCc1cc(C)[nH]c(=O)c1CNC(=O)c1cc(-c2ccc(N3CCN(C(C)C)CC3)nc2)cc2c1cnn2C(C)C [UNC 1999] |  | 80.5 mP | 
39 | BMS-189453 | 88.8 mP |  | 
40 | CCC(=O)Nc1cccc(Oc2nc(Nc3ccc(N4CCN(C)CC4)cc3OC)ncc2Cl)c1 [WZ4003] | 86.4 mP |  | 

Row | Compound | FP (mP) [1] | FP (mP) [2] | also measured
41 | CCCCCOc1ccc(-c2cc(-c3ccc(C(=O)N[C@H]4C[C@@H](O)[C@@H](O)NC(=O)[C@@H]5[C@@H](O)[C@@H](C)CN5C(=O)[C@H]([C@H](O)CC(N)=O)NC(=O)[C@H]([C@H](O)[C@@H](O)c5ccc(O)c(OS(=O)(=O)O)c5)NC(=O)[C@@H]5C[C@@H](O)CN5C(=O)[C@H]([C@@H](C)O)NC4=O)cc3)no2)cc1 [Micafungin] (X1-[Orn(4R-OH,5R-OH)]T[Hyp][hTyr(3S-OH,4S-OH,3'-OSO3H)][Gln(3R-OH)][Pro(3S-OH,4S-Me)]; lactam 1-C) |  |  | FP (mP) [3]: 128.6 mP
42 | CN1CCN(c2ccc(/C=C(\C#N)c3ccccc3Br)cc2)CC1.Cl.Cl [DG 172 dihydrochloride] |  | 81 mP | 
43 | Cc1cc(CN)cc(C)c1NC(=O)c1ccc(-c2cc(Cl)ccc2Cl)o1 [CYM50358] | 84.1 mP |  | 
44 | CCOC(=O)c1c(CSc2ccccc2)n(C)c2cc(Br)c(O)c(CN(C)C)c12.Cl [Arbidol hydrochloride] | 89.4 mP |  | 
45 | OCCN1CCN(CC/C=C2/c3ccccc3Sc3ccc(C(F)(F)F)cc32)CC1 [cis-(Z)-Flupenthixol dihydrochloride] | 87.6 mP |  | 
46 | COc1ccc(N(C(=O)Oc2c(C)cccc2C)c2ccnc(Nc3ccc(N4CCN(C)CC4)cc3)n2)c(OC)c1 [WH-4-023] |  | 56.3 mP | 
47 | COC(=O)[C@H]1[C@H]2C[C@@H]3c4[nH]c5cc(OC)ccc5c4CCN3C[C@H]2C[C@@H](OC(=O)c2cc(OC)c(OC)c(OC)c2)[C@@H]1OC [Reserpine] |  |  | FP (mP) [3]: 88.4 mP
48 | CCc1ccc(OCc2ccccc2C(=O)Nc2ccc3nc(C)cc(N)c3c2)cc1 [JTC 801] |  | 84.3 mP | 
49 | CC(C)COCC(CN(Cc1ccccc1)c1ccccc1)N1CCCC1 (stereo not drawn) [Bepridil hydrochloride] |  | 87 mP | 
50 | CCN1CCN(Cc2ccc(C(=O)Nc3ccc(C)c(Oc4ccc5c(c4)CC(=O)N5)c3)cc2C(F)(F)F)CC1.Cl.Cl [DDR1-IN-1 dihydrochloride] |  | 74.4 mP | 
51 | CCOc1cc2ncc(C#N)c(Nc3ccc(OCc4cccc(F)c4)c(Cl)c3)c2cc1NC(=O)/C=C/CN(C)C [HKI 357] |  | 73.4 mP | 
52 | COc1cc(C(=O)NC2CCN(C)CC2)c(F)cc1Nc1ncc2c(n1)N(C1CCCC1)CC(F)(F)C(=O)N2C.Cl [TAK 960 hydrochloride] |  | 88 mP | 
53 | COc1cc2ncnc(Nc3ccc(F)c(Cl)c3)c2cc1OCCCN1CCOCC1 [Gefitinib] |  | 81.8 mP | FP (mP) [3]: 83.7 mP
54 | CCCC[C@@H](C=O)NC(=O)[C@H](CC(C)C)NC(=O)OCc1ccccc1 [Calpeptin] |  | 121.8 mP | 
55 | CCCCCCCCCCCCCCCC(=O)OC(CC(=O)O)C[N+](C)(C)C.[Cl-] (racemic) [Palmitoyl-DL-Carnitine chloride] | 109.8 mP |  | 
56 | CC(C)[C@H]1c2ccc(F)cc2CC[C@@]1(CCN(C)CCCc1nc2ccccc2[nH]1)OC(=O)C1CC1 [NNC 55-0396] | 88.7 mP |  | 
57 | N[C@@H](Cc1cc(I)c(Oc2cc(I)c(O)c(I)c2)c(I)c1)C(=O)[O-].[Na+] [Levothyroxine·Na] |  |  | FP (mP) [3]: 119.8 mP
58 | O=C(c1ccc(Nc2nccc(-c3cc4ccccc4s3)n2)cc1)N1CCC(N2CCCC2)CC1 [IKK-16 dihydrochloride] | 84.3 mP |  | 
59 | Cc1[nH]c(/C=C2\C(=O)Nc3ccc(S(=O)(=O)Cc4c(Cl)cccc4Cl)cc32)c(C)c1C(=O)N1CCC[C@@H]1CN1CCCC1 [PHA 665752] |  | 76.4 mP | 
60 | CCN(CC)CCCC(C)Nc1nc(C)cc(Nc2ccc3nc(C)cc(N)c3c2)n1 (stereo not drawn) [NSC 23766] |  | 89.5 mP | 

Source: publication PMC10063609, “Discovery of novel cardiac troponin activators using fluorescence polarization-based high throughput screening assays” (Scientific Reports, 2023)
